Results on two compounds are retold here after patent publication US20140106390A1, “BIOMARKERS FOR THE TREATMENT OF MULTIPLE MYELOMA” (CELGENE CORPORATION, priority 2011, published 2014).

The conditions of data set [1]: compared with the racemic mixture; cited from earlier work.
The next data set deals with serum M-protein. As to the kind of experiment: Tumor growth inhibition (TGI) model for pomalidomide single agent fitted to serum M-protein data, Phase I/II pomalidomide study. The class given is in vivo, patients. Conditions: population estimate. As to the method:
The Phase I segment investigates whether pomalidomide single agent dose could be escalated up to 5 mg daily using the cyclic schedule. The Phase II segment has progression free survival (PFS) as the primary endpoint and an interim analysis is planned at 50% of the events.
A semi-mechanistic exposure-driven tumor growth inhibition (TGI) model was used to model serum M-protein data (taken as a marker of tumor size) as function of time and drug dose levels. The TGI model is described by the following differential equation system: […]
where y(t) is the at time t with y0 value at baseline (g/L),
KL, is the rate of M-protein level increase (tumor growth rate) (week^−1),
KD, is the rate of drug-induced M-protein decrease (drug potency, mg^−1.week^−1)
KD decreases with time (from KD,0 at time 0, full effect) with the rate constant λ, (week^−1)
D (t) is the amount of drug at the site of action (mg) (“KPD model”) (see Jacqim et al., J. Pharmacokinet. Pharmacodyn. (2007), 31: 57-85),
Kp is the elimination rate constant from the virtual biophase compartment (week^−1).
Model parameters were estimated by maximum likelihood in non-linear mixed effect model using NONMEM VI level 1.0 FOCE method with interaction (Beal et al., NONMEM user's guide. (1992) San Francisco: University of California at San Francisco NONMEM Project Group). […]

Data set [2] in a line: Phase Ib ascending dose study of pomalidomide (MTD). In kind it is in vivo. Conditions: 45 relapsed and refractory multiple myeloma patients. As to the method: M-protein measurements entered from data with pomalidomide in relapsed and refractory multiple myeloma patients consists of one completed and two ongoing studies. In a Phase Ib ascending dose study in 45 patients, the MTD of pomalidomide was 2 mg administered daily or 5 mg administered on an every other day schedule. These subjects tolerated alternate day dosing better than daily dosing based on dose-limiting toxicity (DLT), however, the AE profiles were similar for both dosing regimens.

As to `Nc1cccc2c1C(=O)N([C@H]1CCC(=O)NC1=O)C2=O` [(S)-isomer of 4-(amino)-2-(2,6-dioxo(3-piperidyl))-isoindoline-1,3-dione, (S)-4-(amino)-2-(2,6-dioxo(3-piperidyl))-isoindoline-1,3-dione], in data set [1], the potency result is given as “higher potency than the racemic mixture”.
For the compound `Nc1cccc2c1C(=O)N(C1CCC(=O)NC1=O)C2=O` (centres unmarked) [pomalidomide, 4-amino-2-(2,6-dioxopiperidin-3-yl)isoindole-1,3-dione], the “λ, rate constant of decrease of KD with time (resistance appearance), estimate” value in the data set on serum M-protein was 0.128 wk^−1. The “KL, rate of M-protein level increase (tumor growth rate), estimate” value with serum M-protein (37 patients) is 0.036 wk^−1. For the same compound, the results for the MTD in data set [2] (administered daily) and in data set [2] (administered on an every other day schedule) were 2 mg and 5 mg, respectively.
